Broadly, the Ki is a measure of affinity in units of concentration, obtained from inhibition or displacement.

The experiment deals with T1, cloned human 5-HT1A receptors (Homo sapiens, UniProt P08908).
T1 construct: expressed in transfected cells; host or cells: HEK293 cells, kept under G-418 selection; membranes used
T1 sequence (P08908 1-422): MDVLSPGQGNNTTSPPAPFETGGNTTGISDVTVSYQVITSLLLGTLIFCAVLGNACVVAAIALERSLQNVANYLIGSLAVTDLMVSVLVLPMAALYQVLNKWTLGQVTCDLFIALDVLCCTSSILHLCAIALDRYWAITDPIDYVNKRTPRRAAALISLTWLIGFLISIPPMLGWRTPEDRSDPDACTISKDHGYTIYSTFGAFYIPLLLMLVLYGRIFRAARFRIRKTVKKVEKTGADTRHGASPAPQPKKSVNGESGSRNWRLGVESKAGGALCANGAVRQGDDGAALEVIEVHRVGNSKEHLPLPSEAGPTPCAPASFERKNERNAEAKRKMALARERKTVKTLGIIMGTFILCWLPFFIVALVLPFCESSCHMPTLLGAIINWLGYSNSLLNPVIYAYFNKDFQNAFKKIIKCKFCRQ
As to the kind of experiment: 5-HT1A binding assay using membranes from 5-HT1A receptor-expressing HEK293 cells (3H-8-OH-DPAT displacement). Conditions: 3H-8-OH-DPAT 0.15 nM, HEK293 cell membranes, 90 min at 22° C. As for the experimental part: The following test arrangement was used for determining the receptor binding affinity:
5-HT1A binding assay using membranes from 5-HT1A receptor-expressing HEK293 cells
Culturing 5-HT1A receptor-expressing HEK293 cells 5-HT1A-expressing HEK293 cells are cultured, at 37° C. and in a 5% CO2 atmosphere, in RPMI/Glutamax medium (RPMI 1640, 25 mM Hepes, 2 mM Glutamax, 10% FCS, 2 mM glutamine, penicillin/streptomycin (100 IU/ml each), geneticin G-418 sulfate, 400 mg/l, NaHCO3, 1.2 g/l) in culture flasks (T-175 triple flasks). After confluence has been reached, the medium is removed and the flasks are filled with 15 ml of sterile PBS (phosphate-buffered saline). The cells are detached by incubating them for 10 minutes (incubator, 37° C.) with a trypsin solution (0.05% trypsin, 0.0004% EDTA, 0.02% EGTA, 2.682 mM KCl, 1.47 mM KH2PO4, 6.46 mM NaHPO4, 136.89 mM NaCl). The detachment of the cells is promoted by knocking on the bottom of the flask. After having been transferred into 50 ml tubes (Greiner), the cells are centrifuged at 250×g at room temperature. The supernatant is discarded and the cells are resuspended in 10 ml of medium. The cells are aliquoted once again into culture flasks and cultured for a further 5 to 6 days until the membranes are prepared.
Preparing the Membranes from 5-HT1A Receptor-Expressing HEK293 Cells
The supernatants are removed from the cells and the culture flasks are filled with PBS. The cells are then incubated for 10 minutes with a trypsin solution (for composition see above). The detachment of the cells is promoted by knocking on the bottom of the flask. The cell suspension is removed and the remaining cells are likewise taken up in PBS by washing the culture flasks twice with PBS. The combined cell suspension is aliquoted into […] and centrifuged at 250×g and 4° C. for 10 minutes. The supernatants are discarded and the cells in the pellet are resuspended in PBS. 20 μl of the cell suspension are removed and the cell density is determined. The cells are centrifuged once again at 250×g (4° C.) for 10 minutes, after which the supernatant is discarded and the cells in the pellet are homogenized in 50 mM tris-HCl, pH 7.4 (1 ml/10^8 cells) using an Ultra-Turrax (30 sec).
The homogenate is aliquoted into cryotubes (1 ml/cryotube) and stored in liquid nitrogen until used in the binding assay.
The frozen membranes are thawed at 37° C., after which they are centrifuged at 48000*g (20 minutes) and then resuspended in binding buffer (50 mM Tris-HCl, pH 7.4, 5 mM CaCl2). An incubation assay mixture contains membrane material from […], 0.15 pmol (=0.15 nM) of 3H-8-OH-DPAT, and the substances to be tested, in a total of 1 ml of binding buffer. Nonspecific binding is determined in the presence of 10^−5 M 5-carboxamidotryptamine. Following a 90-minute incubation at 22° C., bound and free ligand are separated from each other by filtering through […] and subsequently washing with from 5 to 9 ml of ice-cold binding buffer. Before use, the GF/B filters are treated for at least 2 hours with 0.3% polyethylenimine. Following filtration, from 3 to 4 ml of Packard Ultima Gold XR are added to the filters and the radioactivity is determined by liquid scintillation counting in a Packard Tricarb.
Evaluating the Data from the 5-HT1A Binding Assay
The displacement curves are analyzed by nonlinear regression using a modified version of the “Ligand” program of Munson & Rodbard (Anal. Biochem., 107, 220 (1980)). The value of the theoretical nonspecific binding is assessed to be the theoretical binding of radioligand at infinitely high ligand concentration. In this connection, the measured values for the nonspecific binding are treated as data points of the displacement curve which correspond to experimental points at an infinitely high ligand concentration. […]
As to `Cc1cccc(N2CCN(CCN3Cc4ccccc4C3=O)CC2)n1` [Example 4, 2-[2-(4-(6-Methyl-2-pyridinyl)-1-piperazinyl)-ethyl]-1-isoindolinone], the Ki was 2.6 nM.
The result for `O=C1c2ccccc2CCN1CCN1CCN(c2nccc3ccccc23)CC1` [Example 1, 2-[2-(4-(1-Isoquinolinyl)-1-piperazinyl)ethyl]-3,4-dihydro-1(2H)-isoquinolinone] reads 0.6 nM.
The result for `O=C1c2ccccc2CN1CCN1CCN(c2nccc3ccccc23)CC1` [Example 22, 2-[2-(4-(1-Isoquinolinyl)-1-piperazinyl)ethyl]-1-isoindolinone] reads 5.4 nM; that for `O=S1(=O)c2ccccc2CN1CCN1CCN(c2cccc3ccccc23)CC1` [Example 8, 2-[2-(4-(1-Naphthyl)-1-piperazinyl)ethyl]-2,3-dihydro-1,2-benzisothiazole 1,1-dioxide], 0.1 nM; that for `O=S1(=O)c2ccccc2CN1CCN1CCN(c2cccc(C(F)(F)F)c2)CC1` [Example 13, 2-[2-(4-(3-Trifluoromethylphenyl)-1-piperazinyl)ethyl]-2,3-dihydro-1,2-benzisothiazole 1,1-dioxide], 1 nM.
With `O=C1CCc2ccccc2N1CCN1CCN(c2nccc3ccccc23)CC1` [Example 6, 1-[2-(4-(1-Isoquinolinyl)-1-piperazinyl)-ethyl]-3,4-dihydro-2(1H)-quinolinone], the affinity, expressed as Ki, was 4.1 nM.
The molecule `O=C1Cc2ccccc2N1CCN1CCN(c2nccc3ccccc23)CC1` [Example 19, 1-[2-(4-(1-Isoquinolinyl)-1-piperazinyl)ethyl]-1,3-dihydro-2H-indol-2-one] showed a Ki of 0.7 nM.
The result for `Cc1cccc(N2CCN(CCN3Cc4ccccc4S3(=O)=O)CC2)n1` [Example 10, 2-[2-(4-(6-Methyl-2-pyridinyl)-1-piperazinyl)ethyl]-2,3-dihydro-1,2-benzisothiazole 1,1-dioxide] reads 0.5 nM.
The result for `O=c1ccc2ccccc2n1CCN1CCN(c2nccc3ccccc23)CC1` [Example 7, 1-[2-(4-(1-Isoquinolinyl)-1-piperazinyl)-ethyl]-2(1H)-quinolinone] reads 2.4 nM; that for `O=c1c2ccccc2ccn1CCN1CCN(c2nccc3ccccc23)CC1` [Example 2, 2-[2-(4-(1-Isoquinolinyl)-1-piperazinyl)-ethyl]-1(2H)-isoquinolinone], 0.6 nM.
As to `O=C1Cc2ccccc2N1CCN1CCN(c2cccc(C(F)(F)F)c2)CC1` [Example 5, 1-[2-(4-(3-Trifluoromethylphenyl)-1-piperazinyl)ethyl]-1,3-dihydro-2H-indol-2-one], the Ki amounted to 2.9 nM.
For `O=S1(=O)c2ccccc2CN1CCN1CCN(c2nccc3ccccc23)CC1` [Example 3, 2-[2-(4-(1-Isoquinolinyl)-1-piperazinyl)-ethyl]-2,3-dihydro-1,2-benzisothiazole 1,1-dioxide] the value was 1.6 nM.

The record behind these values is patent US20040138203A1, “Bicyclic lactams and sulfonamides with 5-ht1a -affinity and use thereof for preventing and treating cerebral ischaemia” (priority 2000, published 2004).
